# Laboratory results: patent US5110976A, “Insecticidal composition comprising more than one active ingredient” (priority 1985, dated 1992)
# Entries after “also recorded” stand apart in the source; their conditions may differ.
# Experiments:
# [1] = tested on: Lucilia sericata; assay: Impregnated filter paper disc contact test, mortality (Table 1); assay type: in vivo, sheep maggot fly (Lucilia sericata), imago; settings: for mortality at 20 µg/disc / mortality at 70 µg/disc / mortality at 220 µg/disc / mortality at 670 µg/disc / mortality at 2000 µg/disc / mortality at 6000 µg/disc: Lucilia sericata, 24 hours, Abbot corrected; for mortality at 20 µg/disc: 0.02 mg/disc; for mortality at 70 µg/disc: 0.07 mg/disc; for mortality at 220 µg/disc: 0.22 mg/disc; for mortality at 670 µg/disc: 0.67 mg/disc; for mortality at 2000 µg/disc: 2.0 mg/disc; for mortality at 6000 µg/disc: 6.0 mg/disc
# Description: The stereoisomers are dissolved in a 1:2 mixture of mineral oil and acetone and filter paper discs (Whatman No. 1., diameter 9 cm) are impregnated with the corresponding dosage of the solution of the active ingredient. The acetone is allowed to evaporate and the insects are examined on filter paper discs placed into Petri-dishes. Three parallels are used for each dose and 15 animals are placed in each Petri-dish. Mortality rate is determined after 24 hours. The corrected mortality % data are calculated by means of the Abbot formula.
# [2] = tested on: T. confusum; assay: Topical LD50 (Table 3); assay type: in vivo, 1-2 weeks' old imagos
# Description: In Table 3 the LD50 values of the Ig and Ii isomers and those of the Ib isomer-pair are disclosed. The data are topically measured.
# The active ingredients are dissolved in 2-ethoxyethanol (cellosolve) and 0.3 μl droplets of the solutions are applied onto the dorsal cuticulum of 3-5 days' old female house flies. 10 animals are used and 2 parallels are carried out for each dose. The tests are carried out for 5 dose levels between activity limits of 0% and 100%. After treatment the flies are placed into glass vials. Mortality is determined after 24 hours. Data are transformed to log10 dosage and probit mortality. LD50 and confidence interval values are calculated by linear regression analysis of the log-probit data. The expected values required for the calculation of synergism are obtained by means of harmonic average. The synergistic factor is the quotient of the expected and measured values.
# The active ingredients are dissolved in 2-ethoxyethanol and 0.3 μl droplets of the solutions are applied onto the abdominal side of 1-2 weeks' old imagos. Treatment is carried out with 2 parallels and 20 animals for each dose by using 5 dose levels in the range between activity limits of 0% and 100%. Evaluation and determination of LD50 values and synergistic factors are carried out as described in Example 21.
# [3] = tested on: A. matricariae; assay: Residual contact test on adults (Table 4); assay type: in vivo, Aphidinus matricariae, adult females
# Description: Adults of A. matricariae are exposed to residues of the active ingredients freshly applied on glass plates forming cages then the survivors are counted.
# Treatments: test products(s) and control treated with water.
# Replicates: at least 3. Plot size (net) 1 cage.
# Parasites of known age 24 hours are used.
# The products are applied at 5-1 ppm concentration, to each of the glass plates.
# 10 females of A. matricariae are introduced into each cage and supplied with honey as food. The number of females surviving exposure is determined after 1.5 and 24 hours, in independent runs. Total number of survivors is calculated for each cage.
# [4] = tested on: Leptinotarsa decemlineata; assay: Topical test on potato beetle (Table 6); assay type: in vivo, imagos; settings: 24 h
# Description: The active ingredients are dissolved in 2-ethoxyethanol and […] of the solutions are applied onto the abdominal sterna of potato beetle (Leptinotarsa decemlineata) imagos. The treatments are carried out by using two parallels and 10 insects for each dose. […]
# [5] = tested on: Hyphantria cunea; assay: Topical test on fall webworm (Table 8); assay type: in vivo, L7-L8 larvae; settings: 24 h
# Description: The active ingredients are dissolved in 2-ethoxyethanol and the solutions are applied in the form of 0.2 μl droplets onto the back of fall webworm (Hyphantria cunea) of L7 -L8 larvae stage. The treated worms are placed on strawberry leaves in Petri-dishes. The test is carried out by using 5 doses; 2 parallels and 10 insects for each dose.
# [6] = tested on: L. decemlineata; assay: 5 EC formulation sprayed on glass plates (Table 9); assay type: in vivo, Colorado beetle (L. decemlineata), imagos; settings: 48 hours
# Description: (§1) From a 5 EC formulation according to Example 17 50-, 100-, 200-, 400-, 800- and 1600-fold diluted emulsions are prepared by diluting with water. 0.5 ml of the emulsions are sprayed onto glass plates whereupon after drying 10 Colorado beetles (L. decemlineata) imagos are placed on each glass plate and the insects are covered. The tests are carried out with 6 doses by carrying out 3 parallels for each dose. The killed insects are counted after 48 hours and the percental mortality rate is calculated.
# [7] = tested on: Acanthoscelides obtectus; assay: 5 EC formulation, insecticidal effect on bean weevil (Table 10); assay type: in vivo, bean weevil (Acanthoscelides obtectus), imagos; settings: 24 hours
# Description: as §1
# The insecticidal effect is tested on been weevil (Acanthoscelides obtectus) imagos. The killed insects are counted after 24 hours and the percental mortality rate is calculated.
# [8] = Acute toxicity on rats and selectivity index; settings: rat, in vivo; for LD50: po, rats, p.o., read-out: approximate LD50 toxicity; for selectivity ratio: quotient of approximate LD50 values on rats and house fly
# Excerpt: The said selectivity index of the enantiomer-pair Ia amounts to 50/0.45=111.
# In addition to the synergistic effect the composition of the present invention has a number of further advantages too and for this reason it is an outstanding product. It is very important that the compositions of the present invention are less toxical towards mammals than the hitherto known compositions of similar efficiency. […] The said selectivity index of Ia amounts to 50/0.45=111.
# [9] = Allergy and skin diseases; settings: in vivo
# [10] = tested on: useful entomophages and parasites; assay: Damage to useful entomophages and parasites; settings: in vivo
# [11] = tested on: A. matricariae; assay: Direct contact test on pupae (Table 26); assay type: in vivo
# Description: Mature pupae of A. matricariae on paprika leaves in Petri-dishes are exposed to a direct spray of the active ingredients. Two or three days before emergence paprika leaves with parasitized pupae are used. The leaves are laid on moistened filter paper in a plastic Petri-dish.
# Application of treatment: See Example 57.
# The pieces of leaf are transferred after treatment to clean Petri-dish bottoms. The trays are stored in a climatic chamber at 20° C. temperature, 70% relative humidity and a light-dark cycle of 16-8 h. Surviving pupae hatch after 2-3 days. The numbers of hatched and dead pupae are counted.
compound,measurement,setting,value
CC1(C)[C@H](C=C(Cl)Cl)[C@H]1C(=O)O[C@H](C#N)c1cccc(Oc2ccccc2)c1 (relative stereo) [Ib],comparative activity,[1]; Ib versus Ia,more active than enantiomer-pair Ia
same,mortality at 20 µg/disc,[1],22%
same,mortality at 70 µg/disc,[1],55%
same,mortality at 220 µg/disc,[1],70%
same,mortality at 670 µg/disc,[1],75%
same,mortality at 2000 µg/disc,[1],100%
same,mortality at 6000 µg/disc,[1],100%
same,LD50 expected,[2]; harmonic average of the single isomers,139.3 ng/insect
same,synerg. factor,[2]; quotient of expected and measured LD50,2.68
same,LD50 measured,"[2]; topical, abdominal side",51.9 ng/insect
same,Mortality %,"[3]; 1 ppm, 1h",0%
same,Mortality %,"[3]; 1 ppm, 5h",75%
same,Mortality %,"[3]; 1 ppm, 24h",88%
same,Mortality %,"[3]; 5 ppm, 1h",100%
same,mortality at 0.05 µg/insect,[4]; 0.05 μg/insect,0%
same,mortality at 0.1 µg/insect,[4]; 0.10 μg/insect,25%
same,mortality at 0.2 µg/insect,[4]; 0.20 μg/insect,75%
same,mortality at 0.4 µg/insect,[4]; 0.40 μg/insect,85%
same,mortality at 0.023 µg/larva,[5]; 0.023 μg/larvae,10%
same,mortality at 0.047 µg/larva,[5]; 0.047 μg/larvae,15%
same,mortality at 0.094 µg/larva,[5]; 0.094 μg/larvae,30%
same,mortality at 0.188 µg/larva,[5]; 0.188 μg/larvae,70%
same,mortality at 0.375 µg/larva,[5]; 0.375 μg/larvae,80%
same,Mortality %,[6]; dilution 50x,100%
same,Mortality %,[6]; dilution 100x,87%
same,Mortality %,[6]; dilution 200x,57%
same,Mortality %,[6]; dilution 400x,37%
same,Mortality %,[6]; dilution 800x,13%
same,Mortality %,[6]; dilution 1600x,0%
same,Mortality %,[7]; dilution 50x,67%
same,Mortality %,[7]; dilution 100x,53%
same,Mortality %,[7]; dilution 200x,37%
same,Mortality %,[7]; dilution 400x,20%
same,Mortality %,[7]; dilution 800x,10%
same,Mortality %,[7]; dilution 1600x,3%
same,LD50,[8],~5000 mg/kg
same,selectivity ratio,[8],7800
same,allergy and skin diseases,[9],causes no allergy and skin diseases
same,damage / toxicity to useful entomophages and parasites,[10],does not damage useful entomophages and parasites; also recorded: less toxic on parasites than the isomer-pair Ia
CC1(C)[C@H](C(=O)O[C@H](C#N)c2cccc(Oc3ccccc3)c2)[C@@H]1C=C(Cl)Cl (relative stereo) [Ia],mortality at 20 µg/disc,[1],0%
same,mortality at 70 µg/disc,[1],30%
same,mortality at 220 µg/disc,[1],29%
same,mortality at 670 µg/disc,[1],57%
same,mortality at 2000 µg/disc,[1],60%
same,mortality at 6000 µg/disc,[1],65%
same,Mortality %,"[3]; 1 ppm, 1h",100%
same,Mortality %,"[3]; 1 ppm, 5h",100%
same,Mortality %,"[3]; 1 ppm, 24h",96%
same,Mortality %,"[3]; 5 ppm, 1h",100%
same,Mortality %,[11]; 1 ppm,0%
same,Mortality %,[11]; 5 ppm,0%
same,Mortality %,[11]; 10 ppm,12.5%
same,Mortality %,[11]; 33 ppm,77.0%
same,LD50,[8],~50 mg/kg
same,selectivity ratio,[8],111
CC1(C)C(C=C(Cl)Cl)C1C(=O)OC(C#N)c1cccc(Oc2ccccc2)c1 (centres unmarked) [Ia:Ib = 4:6],Mortality %,[11]; 1 ppm,0%
same,Mortality %,[11]; 5 ppm,0%
same,Mortality %,[11]; 10 ppm,0%
same,Mortality %,[11]; 33 ppm,14.3%
